Results published in article PMC4014698 (Pharmaceuticals, 2014).
Converted amounts (≈) assume the structure as drawn. Non-standard residues stand in square brackets, D forms with d. Residues, ends and D or L forms follow the SMILES beside them.

How the values were obtained:
[1] = tested on: A. baumannii strain ATCC 19606; assay: MIC, microtiter dilution; type: cell-based, Acinetobacter baumannii; details: source urine; Mueller-Hinton medium, 37 °C, 24 h, 5 × 10^5 CFU/mL; three sets of determinations
Source text: (§1) All the A. baumannii strains used in this study were (1) obtained from the collection of Dr. Anthony A. Campagnari at the University of Buffalo and originally isolated from different patients and organs/tissues (strain 649, blood; strain 689, groin; strain 759, gluteus; strain 821, urine; strain 884, axilla; strain 899, perineum; strain 964, throat; strain 985, pleural fluid and strain 1012, sputum); (2) were purchased from the American Type Culture Collection (ATCC, Manassas, VA, USA) (strain ATCC 17978, fatal meningitis; and strain ATCC 19606, urine).
(§2) The minimal inhibitory concentration (MIC) is defined as the lowest peptide concentration that inhibited bacterial growth. MICs were measured by a standard microtiter dilution method in Mueller Hinton (MH) medium. Briefly, cells were grown overnight at 37 °C in MH broth and were diluted in the same medium. Serial dilutions of the peptides were added to the microtiter plates in a volume of 50 µL, followed by the addition of 50 µL of bacteria to give a final inoculum of 5 × 10^5 colony-forming units (CFU)/mL. The plates were incubated at 37 °C for 24 h, and the MICs were determined.

A. baumannii strain 649 = assay: MIC, microtiter dilution; type: cell-based, Acinetobacter baumannii; details: source blood; Mueller-Hinton medium, 37 °C, 24 h, 5 × 10^5 CFU/mL; three sets of determinations
Source text: as §1, §2

A. baumannii strain 759 = assay: MIC, microtiter dilution; type: cell-based, Acinetobacter baumannii; details: source gluteus; Mueller-Hinton medium, 37 °C, 24 h, 5 × 10^5 CFU/mL; three sets of determinations
Source text: as §1, §2

A. baumannii strain 821 = assay: MIC, microtiter dilution; type: cell-based, Acinetobacter baumannii; details: source urine; Mueller-Hinton medium, 37 °C, 24 h, 5 × 10^5 CFU/mL; three sets of determinations
Source text: as §1, §2

A. baumannii strain 884 = assay: MIC, microtiter dilution; type: cell-based, Acinetobacter baumannii; details: source axilla; Mueller-Hinton medium, 37 °C, 24 h, 5 × 10^5 CFU/mL; three sets of determinations
Source text: as §1, §2

human erythrocytes = assay: Hemolytic activity (HC50); type: cell-based; details: for Hemolytic activity HC50: concentration giving 50% hemolysis after 18 h at 37 °C, 1% human erythrocytes in PBS pH 7.4, hemoglobin release at 570 nm, 100% control water (Figure 7)
Method: Hemoglobin release was determined spectrophotometrically at 570 nm.
From these plots, the HC50 values, the peptide concentration that produces 50% hemolysis of human red blood cells after 18 hours in the standard microtiter dilution method was determined.

[2] = tested on: A. baumannii strain ATCC 17978; type: cell-based, Acinetobacter baumannii; details: ATCC 17978, 24 h
Source text: as §1, §2

A. baumannii strain 964 = type: cell-based, Acinetobacter baumannii; details: source throat; Mueller-Hinton medium, 37 °C, 24 h, 5 × 10^5 CFU/mL; three sets of determinations
Source text: as §1, §2

A. baumannii strain 985 = type: cell-based, Acinetobacter baumannii; details: source pleural fluid; Mueller-Hinton medium, 37 °C, 24 h, 5 × 10^5 CFU/mL; three sets of determinations
Source text: as §1, §2

A. baumannii strain 899 = type: cell-based, Acinetobacter baumannii; details: source perineum; Mueller-Hinton medium, 37 °C, 24 h, 5 × 10^5 CFU/mL; three sets of determinations
Source text: as §1, §2

A. baumannii strain 1012 = type: cell-based, Acinetobacter baumannii; details: source sputum; Mueller-Hinton medium, 37 °C, 24 h, 5 × 10^5 CFU/mL; three sets of determinations
Source text: as §1, §2

A. baumannii strain 689 = type: cell-based, Acinetobacter baumannii; details: source groin; Mueller-Hinton medium, 37 °C, 24 h, 5 × 10^5 CFU/mL; three sets of determinations
Source text: as §1, §2

[3] = tested on: Acinetobacter baumannii (11 different isolates); type: cell-based; details: geometric mean of the MIC values from 11 different isolates of A. baumannii; Table 3A
Source text: as §1, §2
Antibacterial activities against six strains of P. aeruginosa and eleven strains of A. baumannii are compared in Table 3. Geometric mean of MIC values was calculated to provide an overall view of antimicrobial activity of different analogs. It is clear that our peptides were effective in killing the microorganisms tested. Compared to a dramatic reduction in hemolytic activity, antibacterial activity of D-piscidin 1 and D-dermaseptin S4 analogs against eleven strains of A. baumannii maintained the same level (within 2-fold) upon the substitution of “specificity determinant(s)” (Table 3).

[4] = tested on: P. aeruginosa strain PAO1; details: source human wound; Mueller-Hinton medium, 37 °C, 24 h, 5 × 10^5 CFU/mL; three sets of determinations
Source text: (§3) P. aeruginosa strains used are as follows: strain PAO1 was isolated from a human wound in 1955 in Australia; strain WR5 was isolated from a burn patient at Walter Reed Army Hospital, Washington, DC, USA, in 1976 and is a natural toxA^− mutant, but is virulent in experimental mouse models; strain PAK was originally isolated at Memorial University, St. John’s, Newfoundland, Canada, and is widely used in the analysis of pili; strain PA14 was originally isolated as a clinical isolate in 1995 at the Massachusetts General Hospital, Boston, MA, USA and is virulent in a variety of plant and animal models of infection; strain M2 was originally isolated in 1975 from the gastrointestinal tract of a healthy CF1 mouse, University of Cincinnati College of Medicine, and Shriners Burns Institute, Cincinnati, OH, USA and is virulent in a burn mouse model of P. aeruginosa infection; and strain CP204 was isolated from a cystic fibrosis patient in 1989 at the National Jewish Medical and Research Center, Denver, CO, USA. All strains have been maintained at −80 °C in the laboratory of Michael Vasil, University of Colorado, School of Medicine.
(§4) The minimal inhibitory concentration (MIC) is defined as the lowest peptide concentration that inhibited bacterial growth. MICs were measured by a standard microtiter dilution method in Mueller Hinton (MH) medium. Briefly, cells were grown overnight at 37 °C in MH broth and were diluted in the same medium. […] The plates were incubated at 37 °C for 24 h, and the MICs were determined.

P. aeruginosa strain WR5 = details: source burn patient; Mueller-Hinton medium, 37 °C, 24 h, 5 × 10^5 CFU/mL; three sets of determinations
Source text: as §3, §4

[5] = tested on: P. aeruginosa strain CP204; details: source cystic fibrosis patient; Mueller-Hinton medium, 37 °C, 24 h, 5 × 10^5 CFU/mL; three sets of determinations
Source text: as §3, §4

P. aeruginosa strain PAK = details: Mueller-Hinton medium, 37 °C, 24 h, 5 × 10^5 CFU/mL; three sets of determinations
Source text: as §3, §4

P. aeruginosa strain M2 = details: source burn mouse model; Mueller-Hinton medium, 37 °C, 24 h, 5 × 10^5 CFU/mL; three sets of determinations
Source text: as §3, §4

[6] = tested on: P. aeruginosa strain PA14; details: Mueller-Hinton medium, 37 °C, 24 h, 5 × 10^5 CFU/mL; three sets of determinations
Source text: as §3, §4

[7] = tested on: Pseudomonas aeruginosa (6 different isolates); details: geometric mean of the MIC values from 6 different isolates of P. aeruginosa; Table 3B
Source text: as §3, §4
Geometric mean of MIC values was calculated to provide an overall view of antimicrobial activity of different analogs.

Structure (SMILES) | MIC ATCC19606 [1] [µM] | MIC 649 (A. baumannii strain 649) [µM] | MIC 759 (A. baumannii strain 759) [µM] | MIC 821 (A. baumannii strain 821) [µM] | MIC 884 (A. baumannii strain 884) [µM] | Hemolytic activity HC50 (human erythrocytes) [µM] | MIC ATCC17978 [2] [µM] | MIC 964 (A. baumannii strain 964) [µM] | MIC 985 (A. baumannii strain 985) [µM] | MIC 899 (A. baumannii strain 899) [µM] | MIC 1012 (A. baumannii strain 1012) [µM] | MIC 689 (A. baumannii strain 689) [µM] | MIC GM [3] [µM] | MIC PAO1 [4] [µM] | MIC WR5 (P. aeruginosa strain WR5) [µM] | MIC CP204 [5] [µM] | MIC PAK (P. aeruginosa strain PAK) [µM] | MIC M2 (P. aeruginosa strain M2) [µM] | MIC PA14 [6] [µM] | MIC GM [7] [µM] | other results
CC[C@@H](C)[C@@H](NC(=O)CNC(=O)[C@@H](CCCNC(=N)N)NC(=O)[C@@H](Cc1ccccc1)NC(=O)[C@H](NC(=O)[C@@H](Cc1c[nH]cn1)NC(=O)[C@@H](Cc1c[nH]cn1)NC(=O)[C@@H](Cc1ccccc1)NC(=O)[C@H](N)Cc1ccccc1)[C@H](C)CC)C(=O)N[C@@H](C(=O)N[C@H](Cc1c[nH]cn1)C(=O)N[C@@H](C(=O)N[C@H](CCCCN)C(=O)N[C@H](CCCCN)C(=O)N[C@@H](C(=O)N[C@@H](C(=O)N[C@H](Cc1c[nH]cn1)C(=O)N[C@H](CCCNC(=N)N)C(=O)N[C@H](CC(C)C)C(=O)N[C@@H](C(=O)N[C@@H](C(=O)NCC(N)=O)[C@H](C)O)C(C)C)[C@H](C)CC)[C@H](C)O)C(C)C)C(C)C [D-Piscidin 1 G13K] (H-[dF][dF][dH][dH][dI][dF][dR]G[dI][dV][dH][dV][dK][dK][dT][dI][dH][dR][dL][dV][dT]G-NH2) | 5.9 (≈ 15.6 µg/mL) | 3.0 (≈ 7.93 µg/mL) | 5.9 (≈ 15.6 µg/mL) | 5.9 (≈ 15.6 µg/mL) | 5.9 (≈ 15.6 µg/mL) | 7.0 | 5.9 (≈ 15.6 µg/mL) | 5.9 (≈ 15.6 µg/mL) | 3.0 (≈ 7.93 µg/mL) | 5.9 (≈ 15.6 µg/mL) | 5.9 (≈ 15.6 µg/mL) | 5.9 (≈ 15.6 µg/mL) | 5.2 (≈ 13.7 µg/mL) | 23.7 (≈ 62.6 µg/mL) | 23.7 (≈ 62.6 µg/mL) | 47.3 (≈ 125 µg/mL) | 11.8 (≈ 31.2 µg/mL) | 11.8 (≈ 31.2 µg/mL) | 23.7 (≈ 62.6 µg/mL) | 21.1 (≈ 55.8 µg/mL) | 
CC[C@@H](C)[C@@H](NC(=O)[C@@H](Cc1c[nH]cn1)NC(=O)[C@@H](Cc1c[nH]cn1)NC(=O)[C@@H](Cc1ccccc1)NC(=O)[C@H](N)Cc1ccccc1)C(=O)N[C@H](Cc1ccccc1)C(=O)N[C@H](CCCNC(=N)N)C(=O)NCC(=O)N[C@H](CCCCN)C(=O)N[C@@H](C(=O)N[C@H](Cc1c[nH]cn1)C(=O)N[C@@H](C(=O)NCC(=O)N[C@H](CCCCN)C(=O)N[C@@H](C(=O)N[C@@H](C(=O)N[C@H](Cc1c[nH]cn1)C(=O)N[C@H](CCCNC(=N)N)C(=O)N[C@H](CC(C)C)C(=O)N[C@@H](C(=O)N[C@@H](C(=O)NCC(N)=O)[C@H](C)O)C(C)C)[C@H](C)CC)[C@H](C)O)C(C)C)C(C)C [D-Piscidin 1 I9K] (H-[dF][dF][dH][dH][dI][dF][dR]G[dK][dV][dH][dV]G[dK][dT][dI][dH][dR][dL][dV][dT]G-NH2) | 1.5 (≈ 3.88 µg/mL) | 3.0 (≈ 7.76 µg/mL) | 3.0 (≈ 7.76 µg/mL) | 3.0 (≈ 7.76 µg/mL) | 3.0 (≈ 7.76 µg/mL) | 98 | 3.0 (≈ 7.76 µg/mL) | 3.0 (≈ 7.76 µg/mL) | 3.0 (≈ 7.76 µg/mL) | 3.0 (≈ 7.76 µg/mL) | 6.0 (≈ 15.5 µg/mL) | 3.0 (≈ 7.76 µg/mL) | 3.0 (≈ 7.76 µg/mL) | 48.3 (≈ 125 µg/mL) | 24.2 (≈ 62.6 µg/mL) | 48.3 (≈ 125 µg/mL) | 12.1 (≈ 31.3 µg/mL) | 48.3 (≈ 125 µg/mL) | 24.2 (≈ 62.6 µg/mL) | 30.5 (≈ 78.9 µg/mL) | Hemolytic activity Fold improvement in HC50 (human erythrocytes): 54 fold; Hemolytic activity HC50, 18 hours (Figure 8 comparison) (human erythrocytes; 18 hours at 37 °C, human red blood cells, Figure 8, 100% control 0.1% Triton-X 100): 115 µM
